The values below come from patent US12102087B2 (priority 2012, dated 2024).

Common to all, as to assay type: in vivo
Assay [1] deals with Venturia inaequalis. In words: Venturia test (apples)/preventive. Particulars: Venturia inaequalis, 240 h, read-out: Efficacy in % found; for pest or weed control at 50 ppm: application rate 50 ppm a.i.; for pest or weed control at 100 ppm: application rate 100 ppm a.i. From the text: (§1) A synergistic effect of fungicides is always present when the fungicidal activity of the active compound combinations exceeds the total of the activities of the active compounds when applied individually. The expected activity for a given combination of two active compounds can be calculated as follows (cf. Colby, S. R., “Calculating Synergistic and Antagonistic Responses of Herbicide Combinations”, Weeds 1967, 15, 20-22):
(§2) If • X is the efficacy when active compound A is applied at an application rate of m ppm (or g/ha), • Y is the efficacy when active compound B is applied at an application rate of n ppm (or g/ha), • E is the efficacy when the active compounds A and B are applied at application rates of m and n ppm (or g/ha), respectively, and
Venturia test (apples)/preventive • Solvent: 24.5 parts by weight of acetone • 24.5 parts by weight of dimethylacetamide • Emulsifier: 1 part by weight of alkylaryl polyglycol ether
(§3) To produce a suitable preparation of active compound, 1 part by weight of active compound is mixed with the stated amounts of solvent and emulsifier, and the concentrate is diluted with water to the desired concentration.
To test for preventive activity, young plants are sprayed with the preparation of active compound at the stated rate of application. After the spray coating has dried on, the plants are inoculated with an aqueous conidia suspension of the causal agent of apple scab (Venturia inaequalis) and then remain for 1 day in an incubation cabinet at approximately 20° C. and a relative atmospheric humidity of 100%.
The plants are then placed in a greenhouse at approximately 21° C. and a relative atmospheric humidity of approximately 90%.
The test is evaluated 10 days after the inoculation. 0% means an efficacy which corresponds to that of the untreated control, while an efficacy of 100% means that no disease is observed.

Assay [2] relates to Phytophthora infestans. In words: whole plant or invertebrate. Particulars: Phytophthora infestans, 72 h; for pest or weed control at 0.005 ppm: application rate 0.005 ppm a.i.; for pest or weed control at 0.01 ppm: application rate 0.01 ppm a.i.; for pest or weed control at 0.0025 ppm: application rate 0.0025 ppm a.i.
Assay [3] concerns Alternaria solani. In words: Alternaria test (tomatoes)/preventive. The settings on record: Alternaria solani, 72 h, read-out: Efficacy in % found; for pest or weed control at 25 ppm: application rate 25 ppm a.i.; for pest or weed control at 100 ppm: application rate 100 ppm a.i.
Text: as §1, §2
Alternaria Test (Tomatoes)/Preventive • Solvent: 24.5 parts by weight of acetone • 24.5 parts by weight of dimethylacetamide • Emulsifier: 1 part by weight of alkylaryl polyglycol ether
as §3
To test for preventive activity, young plants are sprayed with the preparation of active compound at the stated rate of application. After the spray coating has dried on, the plants are inoculated with an aqueous spore suspension of Alternaria solani. The plants are then placed in an incubation cabinet at approximately 20° C. and a relative atmospheric humidity of 100%.
The test is evaluated 3 days after the inoculation. 0% means an efficacy which corresponds to that of the untreated control while an efficacy of 100% means that no disease is observed.

Assay [4] deals with Sphaerotheca fuliginea. In words: Sphaerotheca test (cucumbers)/preventive.
Text: as §1, §2
Sphaerotheca Test (Cucumbers)/Preventive • Solvent: 24.5 parts by weight of acetone • 24.5 parts by weight of dimethylacetamide • Emulsifier: 1 part by weight of alkylaryl polyglycol ether
as §3
To test for preventive activity, young plants are sprayed with the preparation of active compound at the stated rate of application. After the spray coating has dried on, the plants are inoculated with an aqueous spore suspension of Sphaerotheca fuliginea. The plants are then placed in a greenhouse at approximately 23° C. and a relative atmospheric humidity of approximately 70%.
The test is evaluated 7 days after the inoculation. 0% means an efficacy which corresponds to that of the untreated control, while an efficacy of 100% means that no disease is observed.

Setting [5] is: read-out: Efficacy in % found, Table 3.
The mark [6] stands for this setting: read-out: Efficacy in % found, Table 4.
Where [7] appears, read: read-out: Efficacy in % found, Table 5.
Setting [8] is: read-out: Efficacy in % found, Table 6.
Where [9] appears, read: Table 7, application rate 100 ppm a.i.

Read-outs that look alike come from different tables or passages of the source.

For `CC(C)CC(C)c1sccc1NC(=O)c1cn(C)nc1C(F)(F)F` (stereo not shown) [2.21, penthiopyrad], the pest or weed control at 2 ppm in assay [1] (Table 10, application rate 2 ppm a.i.) amounted to 8%. In addition, the pest or weed control at 2.5 ppm in assay [2] (read-out: Efficacy in % found, Table 5, application rate 2.5 ppm a.i.) came to 0%. Further, in assay [3] (Table 1, application rate 0.5 ppm a.i.), the pest or weed control at 0.5 ppm worked out at 39%.

As to `CS(=O)(=O)Oc1ccccc1C1CC(c2csc(C3CCN(C(=O)Cn4nc(C(F)F)cc4C(F)F)CC3)n2)=NO1` (stereo not shown) [(I-1), 2-{3-[2-(1-{[3,5-bis(difluoromethyl)-1H-pyrazol-1-yl]acetyl}piperidin-4-yl)-1,3-thiazol-4-yl]-4,5-dihydro-1,2-oxazol-5-yl}phenyl methanesulfonate], the values for the pest or weed control at 50 ppm in assay [1] (Table 10) and in assay [1] (Table 11) were 0% and 4%, respectively. For the same molecule, the pest or weed control at 100 ppm in assay [1] (Table 10) turned out to be 0%; in assay [1] (Table 11), 13%; in assay [1] (Table 12) it was 21%; in assay [1] (Table 13), 0%; in assay [3] (Table 2) it was 34%. For the same molecule, the pest or weed control at 0.005 ppm in assay [2] (setting [5]) is 82%; in assay [2] (setting [6]), 67%. The pest or weed control at 0.01 ppm in assay [2] (setting [6]) was found to be 77%. The pest or weed control at 0.0025 ppm is 52% in assay [2] (setting [7]) and 48% in assay [2] (setting [8]). For the same molecule, the “Efficacy in % found” value is reported as 19% in assay [4] (setting [9]); 0% in assay [4] (Table 8, application rate 100 ppm a.i.); 38% in assay [4] (Table 9, application rate 100 ppm a.i.). Further, the pest or weed control at 25 ppm in assay [3] (Table 1) is 20%.

For the molecule `CS(=O)(=O)Oc1cccc(Cl)c1C1CC(c2csc(C3CCN(C(=O)Cn4nc(C(F)F)cc4C(F)F)CC3)n2)=NO1` (stereo not shown) [(I-3), 2-{3-[2-(1-{[3,5-bis(difluoromethyl)-1H-pyrazol-1-yl]acetyl}piperidin-4-yl)-1,3-thiazol-4-yl]-4,5-dihydro-1,2-oxazol-5-yl}-3-chlorophenyl methanesulfonate], the pest or weed control at 50 ppm in assay [1] (Table 10) and in assay [1] (Table 11) was 0% in each case. In addition, the pest or weed control at 100 ppm in assay [1] (Table 10) turned out to be 0%; in assay [1] (Table 11), 15%; in assay [1] (Table 12), 0%; in assay [1] (Table 13) it was 0%; in assay [3] (Table 2), 36%. Also, the pest or weed control at 0.0025 ppm in assay [2] (setting [5]) worked out at 65%; in assay [2] (setting [7]), 59%; in assay [2] (setting [8]), 79%. In addition, the pest or weed control at 0.005 ppm in assay [2] (setting [6]) came to 5%. In addition, the pest or weed control at 0.01 ppm in assay [2] (setting [6]) was 28%; in assay [2] (setting [7]), 87%. Also, the “Efficacy in % found” value in assay [4] (setting [9]) is reported as 43%; in assay [4] (Table 8, application rate 50 ppm a.i.), 19%; in assay [4] (Table 9, application rate 50 ppm a.i.), 29%. In addition, the pest or weed control at 25 ppm in assay [3] (Table 1) is 0%; in assay [3] (Table 2) it was 30%.

In the case of `O=C(NCCc1ncc(C(F)(F)F)cc1Cl)c1ccccc1C(F)(F)F` [2.6, fluopyram], the pest or weed control at 4 ppm in assay [1] (Table 10, application rate 4 ppm a.i.) stood at 21%. For the same molecule, in assay [4] (Table 7, application rate 4 ppm a.i.), the “Efficacy in % found” value came to 19%. For the same molecule, in assay [3] (Table 1, application rate 1 ppm a.i.), the pest or weed control at 1 ppm was determined as 48%.
